Experimental data from article PMC12860872, “Preclinical evaluation of DOTAGA.Glu.(FAPI)2 and DO3A.Glu.(FAPI)2 as theranostics with human dosimetry extrapolation to lutetium-177 and terbium-161 analogs” (European Journal of Nuclear Medicine and Molecular Imaging, 2025).
Several values for one entry are separate records, joined by “and”; a condition that tells them apart may be missing. Equal values may be shown once.

Tests used:
PC3-mice = test: Biodistribution in PC3-mice incl. blocking; type: in vivo, mouse; conditions: PC3-mice
Protocol: Male athymic Balb/C nude mice (6 weeks/20–25 g) were implanted with PC3 cells (3.5 × 10^6/100 µL PBS) into their right shoulder to develop tumors. The animals were used for biodistribution and PET/SPECT/CT imaging studies, once tumors reached 250–300 mm^3.
All mice were euthanized with intraperitoneal injection of pentobarbital (150 mg/kg), and selected organs were dissected, weighed, and measured for radioactivity using a gamma-counter. Results are expressed as % injected activity per gram tissue (% I.A./g), presented as mean ± SD (n = 3–4).

[1] = Blood clearance kinetics in healthy mice; type: in vivo, mouse; conditions: i.v., Two-Phase Decay Model
Protocol: Blood samples were collected from the facial vein at 1, 3, 5, 7, 10, 15, 20, 30, 45, 60, 240, and 1440 min p.i., weighed, and measured for radioactivity using a γ-counter. Results were expressed as % I.A./g of blood and plotted over time. The initial and terminal half-lives were determined using Two-Phase Decay Model. The biological half-lives of selected organs were calculated from the biodistribution data using One-Phase Decay Model (GraphPad Prism 8).

[2] = Blocking 4h (20 nmol unlabeled precursor)

Compound: N#C[C@@H]1CC(F)(F)CN1C(=O)CNC(=O)c1ccnc2ccc(OCCCCNC(=O)CC[C@H](NC(=O)CN3CCN(CC(=O)[O-])CCN(CC(=O)[O-])CCN(CC(=O)[O-])CC3)C(=O)NCCCCOc3ccc4nccc(C(=O)NCC(=O)N5CC(F)(F)C[C@H]5C#N)c4c3)cc12.[177Lu+3] [[^177Lu]Lu-DO3A.Glu.(FAPI)2]
- Uptake in Adrenal (PC3-mice; 4 h p.i.): 3.7±1 %I.A./g
- Uptake in Blood (PC3-mice; 4 h p.i.): 2.3±0.3 %I.A./g
- Uptake in Bone (PC3-mice; 4 h p.i.): 5.2±0.2 %I.A./g
- Uptake in Heart (PC3-mice; 4 h p.i.): 1.2±0.5 %I.A./g
- Uptake in Intestine (PC3-mice; 4 h p.i.): 0.9±0.4 %I.A./g
- Uptake in Kidney (PC3-mice; 4 h p.i.): 1.5±0.4 %I.A./g
- Uptake in Liver (PC3-mice; 4 h p.i.): 1.7±0.1 %I.A./g
- Uptake in Lung (PC3-mice; 4 h p.i.): 1.6±0.02 %I.A./g
- Uptake in Muscle (PC3-mice; 4 h p.i.): 1.9±0.3 %I.A./g
- Uptake in Pancreas (PC3-mice; 4 h p.i.): 2.3±0.4 %I.A./g
- Uptake in Salivary glands (PC3-mice; 4 h p.i.): 8.2±1.3 %I.A./g
- Uptake in Spleen (PC3-mice; 4 h p.i.): 1.2±0.1 %I.A./g
- Uptake in Stomach (PC3-mice; 4 h p.i.): 0.9±0.2 %I.A./g
- Uptake in Tumor (PC3-mice; 4 h p.i.): 15±1.3 %I.A./g
- Uptake in Adrenal (PC3-mice; 24 h p.i.): 1.5±0.2 %I.A./g
- Uptake in Blood (PC3-mice; 24 h p.i.): 0.9±0.1 %I.A./g
- Uptake in Bone (PC3-mice; 24 h p.i.): 2±0.1 %I.A./g
- Uptake in Gallbladder (PC3-mice; 24 h p.i.): 1.3±0.03 %I.A./g
- Uptake in Heart (PC3-mice; 24 h p.i.): 0.4±0.03 %I.A./g
- Uptake in Intestine (PC3-mice; 24 h p.i.): 0.4±0.1 %I.A./g
- Uptake in Kidney (PC3-mice; 24 h p.i.): 0.9±0.1 %I.A./g
- Uptake in Liver (PC3-mice; 24 h p.i.): 1.7±0.2 %I.A./g
- Uptake in Lung (PC3-mice; 24 h p.i.): 0.6±0.03 %I.A./g
- Uptake in Muscle (PC3-mice; 24 h p.i.): 1±0.1 %I.A./g
- Uptake in Pancreas (PC3-mice; 24 h p.i.): 1±0.05 %I.A./g
- Uptake in Salivary glands (PC3-mice; 24 h p.i.): 3.9±0.3 %I.A./g
- Uptake in Spleen (PC3-mice; 24 h p.i.): 0.8±0.05 %I.A./g
- Uptake in Stomach (PC3-mice; 24 h p.i.): 0.4±0.03 %I.A./g
- Uptake in Tumor (PC3-mice; 24 h p.i.): 7.5±1.2 %I.A./g
- Uptake in Adrenal (PC3-mice; 48 h p.i.): 1.1±0.5 %I.A./g
- Uptake in Blood (PC3-mice; 48 h p.i.): 0.2±0.03 %I.A./g
- Uptake in Bone (PC3-mice; 48 h p.i.): 1±0.1 %I.A./g
- Uptake in Gallbladder (PC3-mice; 48 h p.i.): 0.6±0.1 %I.A./g
- Uptake in Heart (PC3-mice; 48 h p.i.): 0.1±0.01 %I.A./g
- Uptake in Intestine (PC3-mice; 48 h p.i.): 0.1±0.04 %I.A./g
- Uptake in Kidney (PC3-mice; 48 h p.i.): 0.4±0.1 %I.A./g
- Uptake in Liver (PC3-mice; 48 h p.i.): 1.1±0.2 %I.A./g
- Uptake in Lung (PC3-mice; 48 h p.i.): 0.2±0.1 %I.A./g
- Uptake in Muscle (PC3-mice; 48 h p.i.): 0.4±0.04 %I.A./g
- Uptake in Pancreas (PC3-mice; 48 h p.i.): 0.3±0.01 %I.A./g
- Uptake in Salivary glands (PC3-mice; 48 h p.i.): 1.1±0.3 %I.A./g
- Uptake in Spleen (PC3-mice; 48 h p.i.): 0.5±0.05 %I.A./g
- Uptake in Stomach (PC3-mice; 48 h p.i.): 0.2±0.05 %I.A./g
- Uptake in Tumor (PC3-mice; 48 h p.i.): 3.1 ± 0.5 %I.A./g
- Uptake in Adrenal (PC3-mice; 72 h p.i.): 0.3±0.1 %I.A./g
- Uptake in Blood (PC3-mice; 72 h p.i.): 0.06±0 %I.A./g
- Uptake in Bone (PC3-mice; 72 h p.i.): 0.4±0.005 %I.A./g
- Uptake in Gallbladder (PC3-mice; 72 h p.i.): 0.4±0.2 %I.A./g
- Uptake in Heart (PC3-mice; 72 h p.i.): 0.04±0.01 %I.A./g
- Uptake in Intestine (PC3-mice; 72 h p.i.): 0.05±0.01 %I.A./g
- Uptake in Kidney (PC3-mice; 72 h p.i.): 0.2±0.02 %I.A./g
- Uptake in Liver (PC3-mice; 72 h p.i.): 0.8±0.1 %I.A./g
- Uptake in Lung (PC3-mice; 72 h p.i.): 0.1±0.01 %I.A./g
- Uptake in Muscle (PC3-mice; 72 h p.i.): 0.1±0.01 %I.A./g
- Uptake in Pancreas (PC3-mice; 72 h p.i.): 0.1±0.02 %I.A./g
- Uptake in Salivary glands (PC3-mice; 72 h p.i.): 0.3±0.1 %I.A./g
- Uptake in Spleen (PC3-mice; 72 h p.i.): 0.3±0.04 %I.A./g
- Uptake in Stomach (PC3-mice; 72 h p.i.): 0.05±0 %I.A./g
- Uptake in Tumor (PC3-mice; 72 h p.i.): 1.4±0.1 %I.A./g
- Uptake in Adrenal (PC3-mice; 96 h p.i.): 0.2±0.1 %I.A./g
- Uptake in Blood (PC3-mice; 96 h p.i.): 0.02±0.01 %I.A./g
- Uptake in Bone (PC3-mice; 96 h p.i.): 0.3±0.1 %I.A./g
- Uptake in Gallbladder (PC3-mice; 96 h p.i.): 0.1±0.02 %I.A./g
- Uptake in Heart (PC3-mice; 96 h p.i.): 0.02±0.01 %I.A./g
- Uptake in Intestine (PC3-mice; 96 h p.i.): 0.02±0.01 %I.A./g
- Uptake in Kidney (PC3-mice; 96 h p.i.): 0.1±0.01 %I.A./g
- Uptake in Liver (PC3-mice; 96 h p.i.): 0.7±0.1 %I.A./g
- Uptake in Lung (PC3-mice; 96 h p.i.): 0.1±0.1 %I.A./g
- Uptake in Muscle (PC3-mice; 96 h p.i.): 0.04±0 %I.A./g
- Uptake in Pancreas (PC3-mice; 96 h p.i.): 0.03±0.01 %I.A./g
- Uptake in Salivary glands (PC3-mice; 96 h p.i.): 0.1±0.03 %I.A./g
- Uptake in Spleen (PC3-mice; 96 h p.i.): 0.4±0.05 %I.A./g
- Uptake in Stomach (PC3-mice; 96 h p.i.): 0.03±0.01 %I.A./g
- Uptake in Tumor (PC3-mice; 96 h p.i.): 1±0.03 %I.A./g
- Uptake in Adrenal (PC3-mice; [2]): 0.3±0.04 %I.A./g
- Uptake in Blood (PC3-mice; [2]): 0.2±0.04 %I.A./g
- Uptake in Bone (PC3-mice; [2]): 0.4±0.1 %I.A./g
- Uptake in Heart (PC3-mice; [2]): 0.1±0.01 %I.A./g
- Uptake in Intestine (PC3-mice; [2]): 0.4±0.02 %I.A./g
- Uptake in Kidney (PC3-mice; [2]): 2.8±0.2 %I.A./g
- Uptake in Liver (PC3-mice; [2]): 1.1±0.01 %I.A./g
- Uptake in Lung (PC3-mice; [2]): 0.5±0.1 %I.A./g
- Uptake in Muscle (PC3-mice; [2]): 0.1±0.01 %I.A./g
- Uptake in Pancreas (PC3-mice; [2]): 0.1±0.01 %I.A./g
- Uptake in Salivary glands (PC3-mice; [2]): 0.3±0.01 %I.A./g
- Uptake in Spleen (PC3-mice; [2]): 0.4±0.03 %I.A./g
- Uptake in Stomach (PC3-mice; [2]): 0.2±0.1 %I.A./g
- Uptake in Tumor (PC3-mice; [2]): 1.1±0.4 %I.A./g
- tumor uptake (PC3-mice; at 1 h p.i. as printed): ~ 15 %I.A./g
- drop of tumor uptake (washed-out) (PC3-mice; at 24 h vs 4 h p.i.): ~ 50%
- Blood half life (initial) [1]: 1.3 min
- Blood half life (terminal) [1]: 4.172 h and 4.17 h
